pEC50: −log10 of the molar value. Counter-ions that a name gives are not always drawn. Active and inactive are the calls of the source. No cut-off for these calls is given here.
Test system: not listed separately
Experiment: Agonist activity at noradrenergic receptor in Sprague-Dawley rat limbic forebrain assessed as increase in c-AMP production incubated for 10 mins
Conditions: not given
`CC(N)C(O)c1ccc(O)c(O)c1` (racemic) [NORDEFRIN HYDROCHLORIDE] showed a pEC50 of 5.00. Work on `CNC[C@@H](O)c1ccc(O)c(O)c1` yielded a pEC50 of less than 4.00. For `CC(C)NC[C@H](O)c1ccc(O)c(O)c1`, the pEC50 was 5.30. With `CNC[C@H](O)c1ccc(O)c(O)c1` [EPINEPHRINE BITARTRATE] the pEC50 was 5.30.

Species on record: Rattus norvegicus
Experiment: Agonist activity at noradrenergic receptor in Sprague-Dawley rat limbic forebrain assessed as increase in c-AMP production up to 10^-4 M incubated for 10 mins
Assay type: tissue-based
Conditions: Limbic system
In the case of `NCCc1ccc(O)c(O)c1`, the Activity was “inactive”. In the case of `C[C@H](N)[C@@H](O)c1ccc(O)cc1`, the Activity was “inactive”. For `C[C@H](N)[C@H](O)c1ccc(O)cc1`, the Activity was “inactive”. For `C[C@H](N)Cc1ccc(O)cc1`, the Activity was “inactive”. In the case of `C[C@H](N)[C@H](O)c1cccc(O)c1`, the Activity was “inactive”. For `C[C@H](N)Cc1ccccc1`, the Activity was “inactive”. For `NCC(O)c1ccc(O)cc1` (racemic), the Activity was “inactive”.

Reference: ChEMBL document CHEMBL3244148, “Agonist effects of beta-phenethylamines on the noradrenergic cyclic adenosine 3',5'-monophosphate generating system in rat limbic forebrain. Stereoisomers of p-hydroxynorephedrine” (J Med Chem, 1977)
